Here are results for 39 molecules from patent US8907103B2, “Glucagon antagonists” (Metabasis Therapeutics, Inc., priority 2008, dated 2014).

The EC50 is the concentration at which the effect is half-maximal.

One assay concerns the target T1, human glucagon receptor (Homo sapiens, UniProt P47871).
T1 construct: host or cells: human liver samples or a recombinant cell line (alternatives)
Briefly: Human glucagon receptor affinity ([125I]glucagon displacement, membrane preparation). Type of assay: binding. The protocol: Compounds provided herein are dissolved in a suitable solvent (e.g., dimethlysulfoxide) at a concentration of 10 mM and then diluted in buffer (e.g., 50 mM Hepes, pH 7.4, 5 mM MgCl2, 1 mM CaCl2, and 0.2% BSA) to concentrations ranging from 1 nM to 100 μM. Compounds (20 μL/well) and [^125I]glucagon at the final concentration of 0.125 nM (20 μl/well) (Perkin Elmer) are added to and mixed in wells of a 96-well plate (Costar, Corning) containing 120 μL of buffer. Next, an appropriate aliquot of a membrane preparation containing the human glucagon receptor (isolated from human liver samples or obtained from a recombinant cell line) is added to the wells. The binding mixtures are incubated for 2 hrs at room temperature. In the meantime, a MultiScreen 96-well filter plate (Millipore) is treated with 200 μL of the buffer, which is vacuumed through the filter just before the binding mixtures are transferred to the plate. At the end of incubation, binding mixtures are transferred to the wells of the MultiScreen 96-well filter plate and filtered through by applying vacuum. The plate is washed once with 200 μL per well of the buffer, and the filters are dried and counted using a gamma counter.

The next assay has as its system human hepatocytes. Briefly: Functional antagonism of glucagon-stimulated glucose production in hepatocytes. Type of assay: cell-based. As to conditions: human hepatocyte assay, 1 nM glucagon; read-out: Hu Hepatocyte EC50. Here is the method:
Primary human, monkey, dog, rat, or mouse hepatocytes are seeded onto collagen-coated 24-well plates in Williams E medium (supplemented with 10% fetal bovine serum) and incubated at 37° C. overnight in M199 medium (supplemented with 15 mM glucose and 10 nM human insulin). The following day cells are washed twice with a glucose-free Kreb-bicarbonate buffer, pH 7.4, containing 0.1% BSA. Cells are then incubated at 37° C. with the aforementioned buffer containing 1 nM glucagon and varying concentrations of a glucagon antagonist (0-100 microM). Control wells without glucagon or antagonist are also included. After 1 hour, an aliquot of the medium is removed and analyzed for glucose content by means of the glucose oxidase method. The background glucose levels observed in the control wells are subtracted from the glucagon and antagonist containing wells. A graph of % glucose concentration vs drug concentration is plotted and an EC50 value for inhibition of glucose production generated using Sigmaplot software (SAS, Cary, N.C.). Alternatively, intracellular cAMP levels are measured using standard kits and EC50 values determined by plotting these levels against drug concentration. Antagonists of the glucagon receptor inhibit glucagon-induced cAMP production.

Where [1] appears, read: human glucagon receptor binding assay, stereo column says racemic or R-isomer, read-out: Hu IC50.
The mark [2] stands for this setting: R-isomer, read-out: Hu 1050 (nM) R.
Setting [3] is: S-isomer, read-out: Hu 1050 (nM) S.

SMILES strings stand for the structures. Read-outs that look alike come from different tables or passages of the source.

T1 sequence (P47871 26-477): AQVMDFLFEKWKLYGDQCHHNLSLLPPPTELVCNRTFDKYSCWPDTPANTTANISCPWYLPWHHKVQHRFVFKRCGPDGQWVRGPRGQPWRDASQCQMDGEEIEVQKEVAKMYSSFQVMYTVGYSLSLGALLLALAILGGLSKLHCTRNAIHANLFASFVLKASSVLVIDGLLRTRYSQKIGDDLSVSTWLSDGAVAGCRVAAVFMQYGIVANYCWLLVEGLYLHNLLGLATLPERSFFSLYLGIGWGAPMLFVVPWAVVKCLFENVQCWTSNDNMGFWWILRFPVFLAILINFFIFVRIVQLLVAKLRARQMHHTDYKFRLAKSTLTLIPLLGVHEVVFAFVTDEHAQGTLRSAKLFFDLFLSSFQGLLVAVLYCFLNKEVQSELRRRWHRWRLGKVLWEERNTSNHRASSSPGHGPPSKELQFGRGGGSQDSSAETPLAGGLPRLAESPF

On to `O=C(NCCS(=O)(=O)O)c1ccc(CC(C(=O)Nc2ccc(-c3ccc(C(F)(F)F)cc3Cl)cc2)c2ccc(C3=CCCCC3)cc2)cc1` (racemic), for which, at human glucagon receptor (setting [1]), the IC50 was 16 nM. Take `CC(C)(C)C1CCC(c2ccc(C(Cc3ccc(C(=O)NCCS(=O)(=O)O)cc3)C(=O)Nc3ccc(-c4nc5ccccc5o4)cc3)cc2)CC1` (racemic): the EC50 in the assay with human hepatocytes was 161 nM. For the same molecule, on human glucagon receptor (setting [1]), the IC50 was 18 nM.

As to `Cc1cc(Cl)ccc1-c1ccc(NC(=O)C(Cc2ccc(C(=O)NCCS(=O)(=O)O)cc2)c2cccc(-c3ccc(C(C)(C)C)cc3)c2)cc1` (racemic), the EC50 in the assay on human hepatocytes was found to be 329 nM. The IC50 at human glucagon receptor (setting [1]) amounted to 15 nM. The like results for `Cc1ccc(Cl)cc1-c1ccc(NC(=O)C(Cc2ccc(C(=O)NCCS(=O)(=O)O)cc2)c2ccc(-c3ccc(C(C)(C)C)cc3)cc2)cc1` (racemic) were, in that order, 192 nM and 10 nM.

Take `CC(C)(C)C1CCC(c2ccc(C(Cc3ccc(C(=O)NCCS(=O)(=O)O)cc3)C(=O)Nc3ccc(-c4ccc(C(F)(F)F)cc4Cl)cc3)cc2)CC1` (racemic): the EC50 in the assay on human hepatocytes was determined as 30 nM. Moreover, the IC50 at human glucagon receptor (setting [1]) is 12 nM. In the case of `Cc1cc(Cl)ccc1-c1ccc(NC(=O)C(Cc2ccc(C(=O)NCCS(=O)(=O)O)cc2)c2ccc(C3=CCC(C(C)(C)C)CC3)cc2)cc1` (single isomer, unassigned) [drawing 129 R], at human glucagon receptor (setting [2]), the IC50 was found to be 7 nM.

Turning to `CC1(C)CC=C(c2ccc(C(Cc3ccc(C(=O)NCCS(=O)(=O)O)cc3)C(=O)Nc3ccc(-c4ccc(C(F)(F)F)cc4Cl)cc3)cc2)CC1` (racemic), the EC50 in the assay on human hepatocytes was found to be 137 nM. The IC50 on human glucagon receptor (setting [1]) was 15 nM.

On to `Cc1ccc(-c2ccc(NC(=O)C(Cc3ccc(C(=O)NCCS(=O)(=O)O)cc3)c3ccc(C4=CCC(C)(C)CC4)cc3)c(Cl)c2)c(C)c1` (racemic), for which the IC50 at human glucagon receptor (setting [1]) amounted to 14 nM. For `Cc1cc(NC(=O)C(Cc2ccc(C(=O)NCCS(=O)(=O)O)cc2)c2ccc(-c3ccc(C(C)(C)C)cc3)cc2)ccc1-c1nc2ccccc2o1` (racemic), in the assay on human hepatocytes, the EC50 was found to be 167 nM. In addition, the IC50 at human glucagon receptor (setting [1]) worked out at 8 nM. The like results for `Cc1cc(C)c2oc(-c3ccc(NC(=O)C(Cc4ccc(C(=O)NCCS(=O)(=O)O)cc4)c4ccc(-c5ccc(C(C)(C)C)cc5)cc4)cc3)nc2c1` (racemic) were, in that order, 560 nM and 11 nM.

`Cc1cccc2oc(-c3ccc(NC(=O)C(Cc4ccc(C(=O)NCCS(=O)(=O)O)cc4)c4ccc(-c5ccc(C(C)(C)C)cc5)cc4)cc3)nc12` (single isomer, unassigned) [drawing 135 R]: the IC50 at human glucagon receptor (setting [2]) worked out at 10 nM. Still for that read-out and setting: in the case of `Cc1cc(Cl)ccc1-c1ccc(NC(=O)C(Cc2ccc(C(=O)NCCS(=O)(=O)O)cc2)c2ccc(C=CC(C)(C)C)cc2)cc1` (single isomer, unassigned) [drawing 125 R] it was 14 nM. Turning to `CC1(C)CC=C(c2ccc(C(Cc3ccc(C(=O)NCCS(=O)(=O)O)cc3)C(=O)Nc3ccc(-c4ccc(C(C)(C)C)cc4)cc3Cl)cc2)CC1` (racemic), at human glucagon receptor (setting [1]), the IC50 was 10 nM. Regarding `Cc1cc(Cl)ccc1-c1ccc(NC(=O)C(Cc2ccc(C(=O)NCCS(=O)(=O)O)cc2)c2ccc(-c3ccc(C(C)(C)C)cc3)cc2)cc1` (stereo not drawn) [drawing 131 R], the IC50 at human glucagon receptor (setting [2]) is 11 nM. On to `CC(C)(C)c1ccc(-c2ccc(C(Cc3ccc(C(=O)NCCS(=O)(=O)O)cc3)C(=O)Nc3ccc(-c4cccc(Cl)c4)cc3)cc2)cc1` (racemic), for which, in the assay on human hepatocytes, the EC50 was found to be 661 nM. Further, the IC50 at human glucagon receptor (setting [1]) came out at 12 nM. The like results for `CC(C)(C)c1ccc(-c2ccc(C(Cc3ccc(C(=O)NCCS(=O)(=O)O)cc3)C(=O)Nc3ccc(-c4nc5ccccc5o4)cc3)cc2)cc1` (racemic) were, in that order, 241 nM and 12 nM.

Take `Cc1ccc(-c2cc(Cl)c(NC(=O)C(Cc3ccc(C(=O)NCCS(=O)(=O)O)cc3)c3ccc(C=CC(C)(C)C)cc3)cc2C)cc1F` (racemic): the EC50 with human hepatocytes was found to be 143 nM. Further, the IC50 on human glucagon receptor (setting [1]) amounted to 20 nM. In the case of `Cc1ccc(-c2ccc(NC(=O)C(Cc3ccc(C(=O)NCCS(=O)(=O)O)cc3)c3ccc(C4=CCC(C)(C)CC4)cc3)c(Cl)c2)cc1Cl` (racemic), the IC50 at human glucagon receptor (setting [1]) was found to be 16 nM. On the same count and under the same terms, in the case of `CC(C)(C)c1ccc(-c2ccc(C(Cc3ccc(C(=O)NCCS(=O)(=O)O)cc3)C(=O)Nc3ccc(-c4ccc(Cl)c(Cl)c4)cc3)cc2)cc1` (racemic) it was 10 nM; in that of `CC(C)(C)c1ccc(-c2ccc(C(Cc3ccc(C(=O)NCCS(=O)(=O)O)cc3)C(=O)Nc3ccc(C4=CCC(C(C)(C)C)CC4)cc3)cc2)cc1` (racemic), 12 nM. For `Cc1cc(Cl)ccc1-c1ccc(NC(=O)C(Cc2ccc(C(=O)NCCS(=O)(=O)O)cc2)c2ccc(C3=CCC(C)(C)CC3)cc2)cc1` (stereo not drawn) [drawing 133 R], the IC50 on human glucagon receptor (setting [2]) was found to be 10 nM. In the case of `CC(C)(C)c1ccc(-c2cccc(C(Cc3ccc(C(=O)NCCS(=O)(=O)O)cc3)C(=O)Nc3ccc(-c4ccc(Cl)cc4Cl)cc3)c2)cc1` (racemic), in the assay with human hepatocytes, the EC50 amounted to 215 nM. The IC50 at human glucagon receptor (setting [1]) turned out to be 15 nM. The like results for `Cc1cc(Cl)ccc1-c1ccc(NC(=O)C(Cc2ccc(C(=O)NCCS(=O)(=O)O)cc2)c2cccc(C3=CCCCC3)c2)cc1` (racemic) were, in that order, 32 nM and 14 nM. With `Cc1cc(Cl)ccc1-c1ccc(NC(=O)C(Cc2ccc(C(=O)NCCS(=O)(=O)O)cc2)c2ccc(C3=CCC(C(C)(C)C)CC3)cc2)cc1` (single isomer, unassigned) [drawing 127 S], the IC50 on human glucagon receptor (setting [3]) was 20 nM.

As for `CC1(C)CC=C(c2ccc(NC(=O)C(Cc3ccc(C(=O)NCCS(=O)(=O)O)cc3)c3ccc(-c4ccc(C(C)(C)C)cc4)cc3)cc2)CC1` (racemic), in the assay with human hepatocytes, the EC50 is 60 nM. The IC50 at human glucagon receptor (setting [1]) came out at 18 nM. Turning to `CC(C)(C)c1ccc(-c2ccc(C(Cc3ccc(C(=O)NCCS(=O)(=O)O)cc3)C(=O)Nc3ccc(-c4c(Cl)cccc4Cl)cc3)cc2)cc1` (racemic), the IC50 at human glucagon receptor (setting [1]) worked out at 18 nM. `CC(C)(C)C1CC=C(c2ccc(C(Cc3ccc(C(=O)NCCS(=O)(=O)O)cc3)C(=O)Nc3ccc(-c4nc5ccccc5o4)cc3)cc2)CC1` (racemic): in the assay on human hepatocytes, the EC50 was 116 nM. For the same molecule, on human glucagon receptor (setting [1]), the IC50 came to 8 nM. On the same counts, the results for `Cc1cc(Cl)ccc1-c1ccc(NC(=O)C(Cc2ccc(C(=O)NCCS(=O)(=O)O)cc2)c2cccc(C3=CCC(C)(C)C=C3)c2)cc1` (racemic) are 108 nM and 19 nM. On the same counts, the results for `CC(C)(C)c1ccc(-c2ccc(C(Cc3ccc(C(=O)NCCS(=O)(=O)O)cc3)C(=O)Nc3ccc(-c4ccccc4Cl)cc3)cc2)cc1` (racemic) are 412 nM and 18 nM. On to `Cc1ccc(-c2ccc(NC(=O)C(Cc3ccc(C(=O)NCCS(=O)(=O)O)cc3)c3ccc(-c4ccc(C(C)(C)C)cc4)cc3)cc2)cc1Cl` (racemic), for which the IC50 at human glucagon receptor (setting [1]) was determined as 10 nM. For `Cc1cc(Cl)ccc1-c1ccc(NC(=O)C(Cc2ccc(C(=O)NCCS(=O)(=O)O)cc2)c2ccc(C3=CCC(C(C)(C)C)CC3)cc2)cc1` (single isomer, unassigned) [drawing 127 R], on human glucagon receptor (setting [2]), the IC50 came to 6 nM. Consider `CC12CCC(C=C1c1ccc(C(Cc3ccc(C(=O)NCCS(=O)(=O)O)cc3)C(=O)Nc3ccc(-c4nc5ccccc5o4)cc3)cc1)C2(C)C` (racemic), for which the EC50 with human hepatocytes was 27 nM. Moreover, the IC50 at human glucagon receptor (setting [1]) was 18 nM.

Turning to `Cc1cc(Cl)ccc1-c1ccc(NC(=O)C(Cc2ccc(C(=O)NCCS(=O)(=O)O)cc2)c2ccc(-c3ccc(C(C)(C)C)cc3)cc2)c(Cl)c1` (racemic), the IC50 on human glucagon receptor (setting [1]) turned out to be 19 nM.

Turning to `Cc1cc(Cl)ccc1-c1ccc(NC(=O)C(Cc2ccc(C(=O)NCCS(=O)(=O)O)cc2)c2ccc(C3=CCC(C(C)(C)C)CC3)cc2)cc1` (single isomer, unassigned) [drawing 129 S], the IC50 on human glucagon receptor (setting [3]) was 19 nM. Turning to `CC1(C)C=CC(c2cccc(C(Cc3ccc(C(=O)NCCS(=O)(=O)O)cc3)C(=O)Nc3ccc(-c4ccc(Cl)cc4Cl)cc3)c2)=CC1` (racemic), in the assay on human hepatocytes, the EC50 came to 61 nM. The IC50 at human glucagon receptor (setting [1]) turned out to be 18 nM. Consider `Cc1cccc2oc(-c3ccc(NC(=O)C(Cc4ccc(C(=O)NCCS(=O)(=O)O)cc4)c4ccc(-c5ccc(C(C)(C)C)cc5)cc4)cc3)nc12` (single isomer, unassigned) [drawing 135 S], for which the IC50 on human glucagon receptor (setting [3]) worked out at 49 nM. With `CC(C)(C)C1CCC(c2ccc(C(Cc3ccc(C(=O)NCCS(=O)(=O)O)cc3)C(=O)Nc3ccc(-c4ccc(Cl)cc4Cl)cc3)cc2)CC1` (racemic) [drawing 110], the IC50 at human glucagon receptor (setting [1]) was 18 nM. `Cc1cc(Cl)ccc1-c1ccc(NC(=O)C(Cc2ccc(C(=O)NCCS(=O)(=O)O)cc2)c2ccc(C=CC(C)(C)C)cc2)cc1` (single isomer, unassigned) [drawing 125 S]: at human glucagon receptor (setting [3]), the IC50 was determined as 61 nM. Consider `Cc1cc(C)c(-c2ccc(NC(=O)C(Cc3ccc(C(=O)NCCS(=O)(=O)O)cc3)c3ccc(C4=CCC(C)(C)CC4)cc3)cc2)c(C)c1` (racemic), for which the IC50 at human glucagon receptor (setting [1]) turned out to be 12 nM.
